Measurements: PMC6791383, “A side-by-side evaluation of [^18F]FDOPA enantiomers for non-invasive detection of neuroendocrine tumors by positron emission tomography” (Oncotarget, 2019)
Values joined by “and” are separate entries in the source; they are usually repeats but may differ in a detail not shown here. Equal entries are not always repeated.

Tests used:
PC12 cells = assay: In vitro uptake (binding) assay in PC12 cells; assay type: cell-based; conditions: 30mins incubation, 1 million cells
Description: (§1) Both [^18F]FDOPA enantiomers were initially assessed in vitro in all NET cells.
(§2) In vitro binding assays were carried out, in triplicate, in PBS with 0.5% FBS, for 30mins at ambient temperatures using 1 million cells and repeated three times. Blocking studies were carried out using 10meq of the commercial LAT1 inhibitor, 2-Aminobicyclo[2.2.1]heptane-2-carboxylic acid (TOCRIS, MN, USA). Following incubation with each tracer, cells were rinsed three times with cold PBS prior to being counted on an automated gamma counter (1282 Compugamma CS; Pharmacia/LKBNuclear, Inc.) along with external standards. Obtained counts were converted into percentage incubated dose per million cells based on normalization to external standards. Experiments were performed in triplicate and repeated three times.

STC-1 cells = assay: In vitro uptake (binding) assay in STC-1 cells; assay type: cell-based; conditions: 30mins incubation, 1 million cells, % incubated dose/million cells
Description: as §1, §2

PC12 xenografts [1] = assay: In vivo PET-CT quantitative image analysis, PC12 xenografts; conditions: PC12 tumors, NSG mice, 9MBq
Description: (§3) All animal studies were carried out according to regulations set forth and approved by the Johns Hopkins Animal Care and Use Committee. Female, 6- to 8-weeks-old immunodeficient NOD scid gamma (NSG) mice were subcutaneously inoculated with 1 million PC12, STC-1 or COLO-320 cells in […] of Hank’s balanced salt solution in the top flank. Tumors of 4–6 mm in diameter (typically 14-21 days post inoculation) were utilized for in vivo imaging or ex vivo biodistribution studies.
(§4) Mice (n=4) were injected with 9MBq (250μCi) of each tracer in 150μL of saline intravenously and anesthetized with 3% isoflurane prior to being placed on the scanner bed. Mice were kept warm with an external light source and maintained at 1% isoflurane levels while being scanned. PET imaging (2 beds; 10 min per bed) was carried out using an ARGUS small-animal PET/CT scanner (Sedecal). A CT scan (512 projections) was obtained at the end of each PET scan for anatomical co-registration. For in vivo blocking experiments, mice were injected with 10meq of LAT1 inhibitor. PET data were reconstructed using the 2-dimensional ordered subsets-expectation maximization algorithm (2D-OSEM) and corrected for dead time and radioactive decay. Data visualization and image generation were carried out using Amira 2019.1 (ThermoFisher Scientific).
(§5) Quantitative in vivo image analysis was carried out in AMIDE (SourceForge) 1.0.4 utilizing ellipsoid region-of-interest volume integrations with 3 slices entailing a depth of 1.9 mm per slice. The %ID per cc values were calculated based on a calibration factor obtained from a phantom (known radioactive quantity in a known volume).

STC-1 xenografts [2] = assay: In vivo PET-CT quantitative image analysis, STC-1 xenografts; conditions: STC-1 tumors, NSG mice, 9MBq
Description: as §3, §4, §5

COLO-320 xenografts [3] = assay: In vivo PET-CT quantitative image analysis, COLO-320 xenografts; conditions: COLO-320 tumors, NSG mice, 9MBq
Description: as §3, §4, §5

STC-1 xenografts [4] = assay: Ex vivo biodistribution in NSG mice bearing STC-1 xenografts; conditions: STC-1 xenograft NSG mice, 1.5MBq i.v.
Description: as §3
(§6) Mice (n=5 per group) were intravenously injected with 1.5MBq (40μCi) of each tracer in 150μL of saline. Ex vivo biodistribution studies were performed at 30min and 120min time points after tracer administration. Blood, liver, spleen, heart, lungs, kidneys, small intestines, stomach, muscle, fat, bone, bladder, brain and tumor tissues were retrieved, weighed, and counted in an automated gamma counter (1282 Compugamma CS). Percentage injected dose per gram (%ID/g) values were calculated based on normalization to external standards, counted in triplicate, and accounted for signal-decay correction.

COLO-320 xenografts [5] = assay: Ex vivo biodistribution in NSG mice bearing COLO-320 xenografts; conditions: for small intestines retention, fold higher than tumor uptake: COLO-320 mice
Description: as §3, §6

PC12 xenografts [6] = assay: Ex vivo biodistribution in NSG mice bearing PC12 xenografts; conditions: PC12 xenograft NSG mice, 1.5MBq i.v.
Description: as §3, §6

[7] = system: NET xenografts (STC-1, PC12, COLO-320); assay: Ex vivo biodistribution, across all NET mouse models; assay type: in vivo, mice; conditions: for brain accumulation, average in all NET mice: average over STC-1, COLO-320 and PC12 mice
Description: as §3, §6

LAT1 [8] = assay: In vivo PET-CT blocking by BCH in NET mouse models; set-up: species or system mice; conditions: all NET mouse models (PC12, STC-1, COLO-320), 10meq LAT1 inhibitor
Description: as §4, §5

LAT1 [9] = system: LAT1; set-up: method as in PMID 21770378, PMID 11901210, PMID 25205473, PMID 30048132; conditions: cited from earlier work
[10] = COLO-320 xenograft NSG mice, 30min p.i., 1.5MBq i.v.
[11] = COLO-320 xenograft NSG mice, 120min p.i., 1.5MBq i.v.

## N[C@@H](Cc1cc(O)c(O)cc1[18F])C(=O)O [L-[^18F]FDOPA, 3,4-dihydroxy-6-[^18F]fluoro-L-phenylalanine]
PC12 cells
  in vitro uptake: 19.73±0.71 % (incubated dose/million cells)
STC-1 cells
  in vitro uptake: 2.97±0.07%
PC12 xenografts [1]; 30min post i.v. injection
  tumor uptake, quantitative PET image analysis: 35.73±2.50 %ID/cc
PC12 xenografts [1]; 120min post i.v. injection
  tumor uptake, quantitative PET image analysis: 18.82±1.55 %ID/cc
STC-1 xenografts [2]; 30min post i.v. injection
  tumor uptake, quantitative PET image analysis: 33.29±1.66 %ID/cc
STC-1 xenografts [2]; 120min post i.v. injection
  tumor uptake, quantitative PET image analysis: 10.38±1.31 %ID/cc
COLO-320 xenografts [3]; 30min post i.v. injection
  tumor uptake, quantitative PET image analysis: 11.99±0.50 %ID/cc
COLO-320 xenografts [3]; 120min post i.v. injection
  tumor uptake, quantitative PET image analysis: 15.10±1.30 %ID/cc
STC-1 xenografts [4]; 30min p.i.
  Biodistribution, Bladder: 5.15 %ID/g
  Biodistribution, Blood: 3.94 %ID/g
  Biodistribution, Bone: 3.09 %ID/g
  Biodistribution, Brain: 2.16 %ID/g
  Biodistribution, Fat: 1.34 %ID/g
  Biodistribution, Heart: 2.72 %ID/g
  Biodistribution, Kidneys: 8.90 %ID/g
  Biodistribution, Liver: 4.87 %ID/g
  Biodistribution, Lungs: 4.13 %ID/g
  Biodistribution, Muscle: 3.63 %ID/g
  Biodistribution, Pancreas: 44.22 %ID/g
  Biodistribution, Small Intestines: 16.04±2.47 %ID/g and 16.43 %ID/g
  Biodistribution, Spleen: 3.98 %ID/g
  Biodistribution, Stomach: 8.97 %ID/g
  Biodistribution, Tumor: 11.06 %ID/g
STC-1 xenografts [4]; 120min p.i.
  Biodistribution, Bladder: 8.80 %ID/g
  Biodistribution, Blood: 1.47 %ID/g
  Biodistribution, Bone: 5.40 %ID/g
  Biodistribution, Brain: 1.07 %ID/g
  Biodistribution, Fat: 0.78 %ID/g
  Biodistribution, Heart: 2.34 %ID/g
  Biodistribution, Kidneys: 4.00 %ID/g
  Biodistribution, Liver: 1.73 %ID/g
  Biodistribution, Lungs: 1.89 %ID/g
  Biodistribution, Muscle: 2.75 %ID/g
  Biodistribution, Pancreas: 20±0.89 %ID/g and 20.71 %ID/g
  Biodistribution, Small Intestines: 5.08 %ID/g
  Biodistribution, Spleen: 6.55 %ID/g
  Biodistribution, Stomach: 6.83 %ID/g
  Biodistribution, Tumor: 6.98 %ID/g
COLO-320 xenografts [5]; 30min
  small intestines retention, fold higher than tumor uptake: 5 fold
COLO-320 xenografts [5]; 120min
  small intestines retention, fold higher than tumor uptake: 3 fold
COLO-320 xenografts [5]; [10]
  Biodistribution, Bladder: 8.38 %ID/g
  Biodistribution, Blood: 5.53 %ID/g
  Biodistribution, Bone: 5.05 %ID/g
  Biodistribution, Brain: 2.58 %ID/g
  Biodistribution, Fat: 0.95 %ID/g
  Biodistribution, Heart: 3.85 %ID/g
  Biodistribution, Kidneys: 13.60 %ID/g
  Biodistribution, Liver: 10.68 %ID/g
  Biodistribution, Lungs: 6.11 %ID/g
  Biodistribution, Muscle: 5.27 %ID/g
  Biodistribution, Pancreas: 57.82 %ID/g
  Biodistribution, Small Intestines: 15.72 %ID/g
  Biodistribution, Spleen: 5.72 %ID/g
  Biodistribution, Stomach: 11.27 %ID/g
  Biodistribution, Tumor: 5.15 %ID/g
COLO-320 xenografts [5]; [11]
  Biodistribution, Bladder: 14.73 %ID/g
  Biodistribution, Blood: 2.44 %ID/g
  Biodistribution, Bone: 7.40 %ID/g
  Biodistribution, Brain: 1.28 %ID/g
  Biodistribution, Fat: 1.76 %ID/g
  Biodistribution, Heart: 2.74 %ID/g
  Biodistribution, Kidneys: 4.16 %ID/g
  Biodistribution, Liver: 2.85 %ID/g
  Biodistribution, Lungs: 2.55 %ID/g
  Biodistribution, Muscle: 4.40 %ID/g
  Biodistribution, Pancreas: 37±5.43 %ID/g and 37.13 %ID/g
  Biodistribution, Small Intestines: 8.66 %ID/g
  Biodistribution, Spleen: 6.72 %ID/g
  Biodistribution, Stomach: 7.99 %ID/g
PC12 xenografts [6]; 30min p.i.
  Biodistribution, Bladder: 7.24 %ID/g
  Biodistribution, Blood: 4.14 %ID/g
  Biodistribution, Bone: 3.86 %ID/g
  Biodistribution, Brain: 1.90 %ID/g
  Biodistribution, Fat: 1.25 %ID/g
  Biodistribution, Heart: 2.96 %ID/g
  Biodistribution, Kidneys: 14.60 %ID/g
  Biodistribution, Liver: 8.59 %ID/g
  Biodistribution, Lungs: 4.57 %ID/g
  Biodistribution, Muscle: 4.70 %ID/g
  Biodistribution, Pancreas: 50.08 %ID/g
  Biodistribution, Small Intestines: 11.50 %ID/g
  Biodistribution, Spleen: 4.30 %ID/g
  Biodistribution, Stomach: 9.04 %ID/g
PC12 xenografts [6]; 120min p.i.
  Biodistribution, Bladder: 14.06 %ID/g
  Biodistribution, Blood: 2.19 %ID/g
  Biodistribution, Bone: 7.19 %ID/g
  Biodistribution, Brain: 1.31 %ID/g
  Biodistribution, Fat: 1.78 %ID/g
  Biodistribution, Heart: 2.45 %ID/g
  Biodistribution, Kidneys: 4.84 %ID/g
  Biodistribution, Liver: 3.01 %ID/g
  Biodistribution, Lungs: 2.43 %ID/g
  Biodistribution, Muscle: 3.48 %ID/g
  Biodistribution, Pancreas: 36.66 %ID/g
  Biodistribution, Small Intestines: 10.02 %ID/g
  Biodistribution, Spleen: 6.11 %ID/g
  Biodistribution, Stomach: 8.28 %ID/g
[7]; 30min p.i.
  brain accumulation, average in all NET mice: 2.21±0.17 %ID/g
[7]; 120min p.i.
  brain accumulation, average in all NET mice: 1.22±0.16 %ID/g
[7]; STC-1 vs COLO-320 tumors
  tumor uptake, fold higher in STC-1 than in COLO-320 tumors: > 2 fold
LAT1 [8]
  tumor uptake after in vivo blocking by BCH: significantly reduced

## N[C@@H](Cc1ccc(O)c(O)c1)C(=O)O [L-DOPA, 3,4-dihydroxy-L-phenylalanine]
LAT1 [9]
  IC50: 69 ± 29 µM
